The source of these data is US20240343717A1, “MICROBIOCIDAL PYRAZOLE DERIVATIVES” (SYNGENTA CROP PROTECTION AG, priority 2021, published 2024).

In one data set the test system is Fusarium culmorum. Kind of data set: microbe, parasite or virus in culture. It is filed as cell-based. The following applies: read-out: control of Fusarium culmorum.
For data set [1], the system named is Glomerella lagenarium (Colletotrichum lagenarium). Kind of data set: Glomerella lagenarium (Colletotrichum lagenarium) / liquid culture (anthracnose). In kind it is cell-based. Particulars: Colletotrichum orbiculare, growth inhibition photometrically 3-4 days after application, read-out: control of Glomerella lagenarium. The method in brief: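 Cryo-stored conidia in potato dextrose broth were added to test compound in DMSO. Plates were incubated at 24° C, and growth inhibition was read photometrically 3-4 days after application.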

The subject of data set [2] is Mycosphaerella arachidis (Cercospora arachidicola). Kind of data set: Mycosphaerella arachidis (Cercospora arachidicola) / liquid culture (early leaf spot). In kind it is cell-based. The following applies: growth inhibition photometrically 4-5 days after application, read-out: control of Mycosphaerella arachidis. The method in brief:
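Spores taken straight from cryostorage are suspended in potato dextrose broth and added to test compound in DMSO. Plates are incubated at 24° C. Growth inhibition is scored photometrically 4-5 days after application.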

Data set [3] concerns Mycosphaerella graminicola (Septoria tritici). Kind of data set: Mycosphaerella graminicola (Septoria tritici) / liquid culture (Septoria blotch). It is filed as cell-based. The following applies: Zymoseptoria tritici, growth inhibition photometrically 4-5 days after application, read-out: control of Mycosphaerella graminicola. The procedure, abridged: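 Conidia suspended in potato dextrose broth and added to test compound supplied in DMSO in 96-well plates. Incubated at 24 °C, and growth inhibition read photometrically 4-5 days after application.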

Data set [4] concerns Botryotinia fuckeliana (Botrytis cinerea). Kind of data set: Botryotinia fuckeliana (Botrytis cinerea) / liquid culture (gray mould). It is filed as cell-based. Particulars: growth inhibition photometrically 3-4 days after application, read-out: control of Botryotinia fuckeliana. The procedure, abridged: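 Conidia suspended in Vogels broth and added to compound dispensed from DMSO. Incubated at 24°C, with growth inhibition measured photometrically 3–4 days later.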

The subject of data set [5] is Monographella nivalis (Microdochium nivale). Kind of data set: Monographella nivalis (Microdochium nivale) / liquid culture (foot rot cereals). It is filed as cell-based. The following applies: growth inhibition photometrically 4-5 days after application, read-out: control of Monographella nivalis. The procedure, abridged:
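Fungal conidia mixed directly into potato dextrose broth and added to test compound delivered in DMSO. Incubated at 24° C; growth inhibition read photometrically 4-5 days after application.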

Data set [6] relates to Gibberella zeae (Fusarium graminearum). Kind of data set: whole plant or invertebrate. It is filed as in vivo. The following applies: in Triticum aestivum, read-out: control of Gibberella zeae.
A further data set relates to Pyrenophora teres. Kind of data set: Pyrenophora teres / barley / leaf disc preventative (net blotch). In kind it is in vivo. The following applies: foliar, barley leaf segments, inoculated 2 days after application. The method in brief: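 Barley cv. Hasso leaf segments on agar sprayed with formulated compound, inoculated with spores 2 days later. Incubated at 20 °C, 65% rh, 12 h light/dark; disease control versus untreated assessed 5–7 days after application.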

The subject of data set [7] is Blumeria graminis f. sp. tritici (Erysiphe graminis f. sp. tritici). Kind of data set: Blumeria graminis f. sp. tritici / wheat / leaf disc preventative (powdery mildew on wheat). In kind it is in vivo. The following applies: foliar, wheat leaf segments, inoculated 1 day after application. As for the experimental part: Example B4: Blumeria graminis f. Sp. Tritici (Erysiphe graminis f. Sp. Tritici)/Wheat/Leaf Disc Preventative (Powdery Mildew on Wheat) Wheat leaf segments cv. Kanzler are placed on agar in a multiwell plate (24-well format) and sprayed with the formulated test compound diluted in water. The leaf disks are inoculated by shaking powdery mildew infected plants above the test plates 1 day after application. The inoculated leaf disks are incubated at 20° C. and 60% rh under a light regime of 24 h darkness followed by 12 h light/12 h darkness in a climate chamber and the activity of a compound is assessed as percent disease control compared to untreated when an appropriate level of disease damage appears on untreated check leaf segments (6-8 days after application).

For another data set, the system named is Sclerotinia sclerotiorum. Kind of data set: Sclerotinia sclerotiorum / liquid culture (cottony rot). In kind it is cell-based. The following applies: growth inhibition photometrically 3-4 days after application, read-out: control of Sclerotinia sclerotiorum. As for the experimental part:
Example B15: Sclerotinia sclerotiorum/Liquid Culture (Cottony Rot) Mycelia fragments of a newly grown liquid culture of the fungus are directly mixed into nutrient broth (PDB potato dextrose broth). After placing a (DMSO) solution of test compound into a microtiter plate (96-well format) the nutrient broth containing the fungal material is added. The test plates are incubated at 24° C. and the inhibition of growth is determined photometrically 3-4 days after application.

For the next data set, the system named is Alternaria solani. Kind of data set: Alternaria solani / tomato / leaf disc (early blight). It is filed as in vivo. The following applies: foliar, tomato leaf disks, sprayed 2 days before inoculation, compared to untreated control. The method, then: Example B1: Alternaria solani/Tomato/Leaf Disc (Early Blight) Tomato leaf disks cv. Baby are placed on agar in multiwell plates (24-well format) and sprayed with the formulated test compound diluted in water. The leaf disks are inoculated with a spore suspension of the fungus 2 days after application. The inoculated leaf disks are incubated at 23° C./21° C.

The test system of data set [8] is Phaeosphaeria nodorum (Septoria nodorum). Kind of data set: Phaeosphaeria nodorum (Septoria nodorum) / wheat / leaf disc preventative (glume blotch). In kind it is in vivo. Particulars: Parastagonospora nodorum, foliar, wheat leaf segments, inoculated 2 days after application. As for the experimental part:
Example B8: Phaeosphaeria nodorum (Septoria nodorum)/Wheat/Leaf Disc Preventative (Glume Blotch) Wheat leaf segments cv. Kanzler are placed on agar in a multiwell plate (24-well format) and sprayed with the formulated test compound diluted in water. The leaf disks are inoculated with a spore suspension of the fungus 2 days after application. The inoculated test leaf disks are incubated at 20° C. and 75% rh under a light regime of 12 h light/12 h darkness in a climate cabinet and the activity of a compound is assessed as percent disease control compared to untreated when an appropriate level of disease damage appears in untreated check leaf disks (5-7 days after application).

One may read the melting point as the temperature, or range, at which the solid turns liquid.

The compound `Cn1ncc(C(CNC(=O)c2nnc(-c3ccc(F)cc3F)s2)c2cccc(Cl)n2)c1Cl` (stereo not drawn) [Compound P-116, N-[2-(5-chloro-1-methyl-pyrazol-4-yl)-2-(6-chloro-2-pyridyl)ethyl]-5-(2,4-difluorophenyl)-1,3,4-thiadiazole-2-carboxamide] gave a melting point of 150 to 151 °C. In addition, the inhibition of growth at 20 ppm with Fusarium culmorum is not below 80%. Moreover, the inhibition of growth at 20 ppm in data set [1] is not below 80%. Besides, in data set [2], the inhibition of growth at 20 ppm was not below 80%. In addition, the inhibition of growth at 20 ppm in data set [3] was not below 80%. In [4], the inhibition of growth at 20 ppm was not below 80%. The inhibition of growth at 20 ppm in [5] was not below 80%.
Compound `CO/N=C(\C)c1ccnc(C(C)(CNC(=O)c2cc(-c3ccc(F)cc3F)on2)c2cnn(C)c2)c1` (stereo not drawn) [Compound P-72, 5-(2,4-difluorophenyl)-N-[2-[4-[(E)-N-methoxy-C-methyl-carbonimidoyl]-2-pyridyl]-2-(1-methylpyrazol-4-yl)propyl]isoxazole-3-carboxamide] came in with a melting point of 88 to 90 °C. For the same compound, in [5], the inhibition of growth at 20 ppm was not below 80%.
As for `Cn1cc([C@@](C)(CNC(=O)c2cc(-c3ccc(F)cc3F)on2)c2cccc(Cl)n2)cn1` [Compound P-30, N-[(2S)-2-(6-chloro-2-pyridyl)-2-(1-methylpyrazol-4-yl)propyl]-5-(2,4-difluorophenyl) isoxazole-3-carboxamide], the pest or weed control at 200 ppm in data set [6] was not below 80%.
`Cn1cc(C(C)(CNC(=O)c2nnc(-c3ccc(F)cc3F)s2)c2cccc(C(F)(F)F)n2)cn1` (stereo not drawn) [Compound P-107, 5-(2,4-difluorophenyl)-N-[2-(1-methylpyrazol-4-yl)-2-[6-(trifluoromethyl)-2-pyridyl]propyl]-1,3,4-thiadiazole-2-carboxamide] came in with a melting point of 162 to 163 °C. Further, the inhibition of growth at 20 ppm in the data set with Fusarium culmorum was not below 80%. Also, in the data set on Pyrenophora teres, the pest or weed control at 200 ppm is not below 80%. Further, in [7], the pest or weed control at 200 ppm is not below 80%. In the data set with Sclerotinia sclerotiorum, the inhibition of growth at 20 ppm is not below 80%. In data set [1], the inhibition of growth at 20 ppm is not below 80%. The compound also gave a pest or weed control at 200 ppm with Alternaria solani not below 80%. The inhibition of growth at 20 ppm in data set [2] is not below 80%. For the same compound, the inhibition of growth at 20 ppm in data set [3] is not below 80%. Besides, the inhibition of growth at 20 ppm in [4] is not below 80%. Further, the inhibition of growth at 20 ppm in data set [5] is not below 80%.
In turn, `Cn1cc(C(C)(CNC(=O)c2nnc(-c3ccc(F)cc3F)s2)c2cccc(C#N)n2)cn1` (stereo not drawn) [Compound P-115, N-[2-(6-cyano-2-pyridyl)-2-(1-methylpyrazol-4-yl)propyl]-5-(2,4-difluorophenyl)-1,3,4-thiadiazole-2-carboxamide] displayed a melting point of 169 to 170 °C. Also, in the data set on Fusarium culmorum, the inhibition of growth at 20 ppm was not below 80%. Besides, the inhibition of growth at 20 ppm in data set [1] is not below 80%. Moreover, in [2], the inhibition of growth at 20 ppm is not below 80%. Further, the inhibition of growth at 20 ppm in [3] was not below 80%. In addition, in [4], the inhibition of growth at 20 ppm is not below 80%. Besides, the inhibition of growth at 20 ppm in [5] was not below 80%.
Compound `Cn1ncc(C(CNC(=O)c2cc(-c3ccc(F)cc3F)on2)c2cccc(Cl)n2)c1Cl` (stereo not drawn) [Compound P-69, N-[2-(5-chloro-1-methyl-pyrazol-4-yl)-2-(6-chloro-2-pyridyl)ethyl]-5-(2,4-difluorophenyl) isoxazole-3-carboxamide] displayed a melting point of 113 to 115 °C. Further, the pest or weed control at 200 ppm in the data set with Pyrenophora teres is not below 80%. This compound showed a pest or weed control at 200 ppm in data set [7] not below 80%. Moreover, in data set [1], the inhibition of growth at 20 ppm is not below 80%. Besides, in data set [2], the inhibition of growth at 20 ppm was not below 80%. In data set [3], the inhibition of growth at 20 ppm is not below 80%. The inhibition of growth at 20 ppm in data set [4] was not below 80%. The pest or weed control at 200 ppm in data set [8] was not below 80%. Moreover, in [5], the inhibition of growth at 20 ppm was not below 80%.
Take `Cn1cc(C(C)(CNC(=O)c2cc(C3CCCC3)on2)c2cccc(Cl)n2)cn1` (stereo not drawn) [Compound P-80, N-[2-(6-chloro-2-pyridyl)-2-(1-methylpyrazol-4-yl)propyl]-5-cyclopentyl-isoxazole-3-carboxamide]: the inhibition of growth at 20 ppm (in the data set on Fusarium culmorum; in data set [1]; in [2]; in [3]; in data set [4]; in data set [5]) was not below 80% throughout. In addition, the pest or weed control at 200 ppm (in the data set with Pyrenophora teres; in the data set on Alternaria solani; in data set [6]) was not below 80% in each case.
`Cn1cc(C(C)(CNC(=O)c2cc(-c3ccc(F)cc3F)on2)c2cccc(C(F)(F)F)n2)cn1` (stereo not drawn) [Compound P-106, 5-(2,4-difluorophenyl)-N-[2-(1-methylpyrazol-4-yl)-2-[6-(trifluoromethyl)-2-pyridyl]propyl] isoxazole-3-carboxamide] came in with a melting point of 160 to 165 °C. Moreover, in the data set on Fusarium culmorum, the inhibition of growth at 20 ppm was not below 80%. Moreover, the inhibition of growth at 20 ppm in the data set on Sclerotinia sclerotiorum was not below 80%. Moreover, the inhibition of growth at 20 ppm in [1] was not below 80%. Moreover, the pest or weed control at 200 ppm with Alternaria solani was not below 80%. In [2], the inhibition of growth at 20 ppm was not below 80%. Also, the inhibition of growth at 20 ppm in data set [3] is not below 80%. Further, the inhibition of growth at 20 ppm in [4] was not below 80%. Moreover, in [5], the inhibition of growth at 20 ppm is not below 80%.
For the compound `Cc1cc(-c2cc(C(=O)NCC(C)(c3cnn(C)c3)c3cccc(Cl)n3)no2)n(C)n1` (stereo not drawn) [Compound P-85, N-[2-(6-chloro-2-pyridyl)-2-(1-methylpyrazol-4-yl)propyl]-5-(2,5-dimethylpyrazol-3-yl)isoxazole-3-carboxamide], the melting point lay in the range of 182 to 184 °C. The same compound yielded a pest or weed control at 200 ppm in the data set with Pyrenophora teres not below 80%. This compound had a pest or weed control at 200 ppm in data set [7] not below 80%. The inhibition of growth at 20 ppm in data set [1] was not below 80%. Besides, the inhibition of growth at 20 ppm in data set [3] was not below 80%.
`Cn1cc(C(C)(CNC(=O)c2cc(-c3cccn3C)on2)c2cccc(Cl)n2)cn1` (stereo not drawn) [Compound P-81, N-[2-(6-chloro-2-pyridyl)-2-(1-methylpyrazol-4-yl)propyl]-5-(1-methylpyrrol-2-yl)isoxazole-3-carboxamide] registered a melting point of 111 to 113 °C. The inhibition of growth at 20 ppm in data set [1] was not below 80%. In data set [2], the inhibition of growth at 20 ppm was not below 80%. In addition, the inhibition of growth at 20 ppm in data set [3] is not below 80%. The inhibition of growth at 20 ppm in data set [4] is not below 80%. For the same compound, the inhibition of growth at 20 ppm in data set [5] was not below 80%.
Compound `Cn1cc(C(C)(CNC(=O)c2cc(-c3ccc(F)cc3F)on2)c2cc(C#N)ccn2)cn1` (stereo not drawn) [Compound P-63, N-[2-(4-cyano-2-pyridyl)-2-(1-methylpyrazol-4-yl)propyl]-5-(2,4-difluorophenyl) isoxazole-3-carboxamide] registered a melting point of 156 to 158 °C. For the same compound, in the data set on Pyrenophora teres, the pest or weed control at 200 ppm was not below 80%. Moreover, in [3], the inhibition of growth at 20 ppm was not below 80%.
